Reference: US12312376B2 (priority 2020, dated 2025)
Where two headings read alike, the source gives them in different places.

Key:
[1] = Intranasal safety profile of rintatolimod compared with EC90; type: in vivo, humans; conditions: dose concentration 2500 μg/ml (45×EC90)
[2] = Clinical trials of tdsRNA (safety); type: in vivo
Source text: tdsRNA has undergone extensive clinical and preclinical testing. […] Favorable safety profiles have been seen for intraperitoneal, intravenous, and intranasal routes of administration of tdsRNA.

[3] = test system: normal, human-derived tracheal/bronchial epithelial (TBE) cells
[4] = over 1,200 patients, over 100,000 doses administered

In the case of rIn•r(C12U)n [Rintatolimod], the “Intranasal tolerability in humans” value [1] is reported as “well tolerated in humans”, the drug-related deaths [2, 4] is reported as “no drug-related deaths” and the “tolerability in clinical trials” value [2, 4] is reported as “generally well-tolerated”. The “serious adverse events compared to placebo” value ([2]; two placebo-controlled, randomized studies) was “no increase in serious adverse events compared to placebo”, the cellular toxicity ([3]; 0.5 mg/mL) was 0% and the cellular toxicity ([3]; 1.5 mg/mL) was 0%. The cytotoxic ([3]; 4.5 mg/mL) was 12% and the cytotoxic ([3]; 10 mg/mL) was 47%.
